This note sets out measurements from patent US9809521B2, “Cannabidinoid derivatives” (priority 2011, dated 2017).

A short description of series [1]: Toxicity observation in the mouse models of metastasis. To be noted: in vivo.
Series [2] relates to 4T1 cells. Description: 4T1 i.v. mouse model, advanced stage metastasis, treatment from day seven. To be noted: for medium increase in survival: 0.5 or 1 mg/kg daily from seven days after injection. It counts as in vivo. On the procedure:
To determine whether CBD could inhibit the formation of lung tumor foci in more advanced stages of metastasis, mice were treated at a time point where visual lung metastatic foci were already formed (as shown at day seven in FIG. 7, panel A). Mice were injected i.v. with 4T1 cells were kept for one week in order to allow for the formation of visible lung metastatic foci. The mice were then treated with CBD.
In-vivo late stage metastatic studies using a Xenograph mouse model for human breast cancer with CBD. […] Lung metastases were generated in BALB/c mice after tail vein injection of 20×10^5 mouse 4T1 cells. […] One week after the tail vein injection of 20×10^5 mouse 4T1 cells, the tumor bearing mice were injected i.p. once a day with vehicle or 1 mg/kg and 10 mg/kg CBD for seven days. Visible lung metastases were counted and measured by using a dissecting microscope.
The activity of CBD and the O-1663 CBD analog to inhibit the formation of lung tumor foci in more advanced stages of metastasis was then compared. Mice were treated at a time point where visual lung metastatic foci were already formed. Mice were injected i.v. with 4T1 cells and kept for one week in order to allow for the formation of visible lung metastatic foci. The mice were then treated with CBD and the O-1663 CBD analog. […] A survival study was then carried out where the activity of CBD to O-1663 CBD analog was compared (FIG. 28, panel C).
In-vivo advanced stage metastasis survivability studies in a mouse model with CBD or O-1663 CBD analog. To determine whether cannabinoids could inhibit the formation of lung tumor foci in more advanced stages of metastasis, we treated mice at a time point where visual lung metastatic foci were already formed (FIG. 30, panel A). Mice injected tail vein with 4T1 cell were kept for one week in order to allow for the formation of visual lung metastatic foci measuring up to 1 mm. The mice where then treated with drug for two months.

The subject of series [3] is SAS, HSC-2, ACCM and ACC2 cells. Description: Head and neck and salivary gland cancer cells: Id-1 expression, viability, invasiveness. It counts as cell-based. On the procedure: (§1) Measuring the effect of CBD on the aggressiveness of head and neck as well as salivary gland cancer cells. Head and neck cancer cell lines (SAS and HSC-2 in the upper panels) and salivary gland cancer cell lines (ACCM and ACC2 in the lower panels) were treated with CBD.

In series [4] the test system is ACCM cells. The experiment in a line: Lung metastasis after injection of ACCM cells. It counts as in vivo, mouse. To be noted: daily treatment. As to the method:
as §1

Series [5] has as its system SF126 cells. Description: MTT cell proliferation assay. To be noted: read-out: IC50, SF126; seven day treatment; 95% confidence limits in brackets.
For series [6], the system named is U251 cells. The experiment in a line: Boyden chamber invasion assay. It counts as cell-based, human. The text has this: Boyden chamber U251 cell invasion studies with CBD and/or Δ^9-THC. In addition to uncontrolled cell growth, a hallmark phenotype of aggressive GBM tumor cells is their ability to migrate away for the primary tumor of origin and invade into neighboring CNS tissue.

The test system of series [7] is U251 cells. The experiment in a line: Apoptosis (annexin staining, FACS). It counts as cell-based, human. On the procedure: Apoptosis: Cells were grown in 6 well culture dishes and were treated with compounds of the disclosure every 24 hours for three days. […] The labeled cells were analyzed by flow cytometry. Cell Flow Cytometry in combination with PI and annexin staining was used to quantify the percentage of cells undergoing apoptosis in control and treatment groups. Percent control was calculated as annexin positive staining in treated cells/control cells×100. PI staining was used to distinguish necrotic cells from those undergoing apoptosis.
(§2) Albeit, the magnitude of these effects was reduced compared to those observed with the combination treatment.
The concentrations of the individual cannabinoids (THC and CBD) were next increased in order to attempt to match levels of apoptosis produced by the combination treatment. The purpose of these experiments was to determine whether the compounds alone recruited similar pathways as compared to the combination of THC and CBD. […] However, THC alone could not produce the level of apoptosis observed with the combination treatment (FIG. 23, panel A and B).

Series [8] concerns U251 GBM cells. The experiment in a line: Intracranial U251 GBM xenograft in nu/nu mice. It counts as in vivo, mouse. On the procedure:
Effects of CBD on GBM cell invasion in In Vivo Studies. To determine whether CBD could inhibit GBM cell invasion through intact brain tissue, an organotypic brain slice assay was utilized. GFP-labeled U251 cells were treated for two days in culture with vehicle or CBD. On the third day, the cells were harvested and transferred to the top of a 0.5 mm coronal rat brain slice obtain from a postnatal day 3 rat pup. A porous cell culture insert containing the slice was suspended for three days in a well containing conditioned media with either vehicle or 1 μM CBD. […] GBM tumors were generated in nu/nu mice by intracranial injection of U251 GBM cells. […] CBD produced a robust reduction of GBM progression, decreasing the tumor area by 95% (FIG. 14, panels B and C). […] This occurred concomitantly with a decrease in tumor cell proliferation (the number of Ki67-positive nuclei was decreased by 87%±9 (p<0.0001, Student's t-test)) (FIG. 14, panel D).

For series [9], the system named is U251 cells. Description: Cell cycle analysis (PI staining, FACS). The series is classed as cell-based, human. To be noted: THC 1.7 μM, CBD 0.4 μM. On the procedure: Cell cycle analysis: U251 cells were grown in Petri dishes (100 mm×15 mm) and received drug treatments for 2 days. On the third day, the cells were harvested and centrifuged at 1200 rpm for 5 minutes. The pellet was washed 1× with PBS+1% BSA, and centrifuged again. The pellet was re-suspended in 0.5 ml of 2% paraformaldehyde (diluted with PBS) and left to fix overnight at room temperature. The next day the cells were pelleted and re-suspended in 0.5 ml 0.3% Triton in PBS and incubated for 5 minutes at room temperature. The cells were then washed 2 times with PBS+1% BSA. The cells were finally suspended in PBS (0.1% BSA) with 10 ug/ml Propidium Iodide and 100 μg/ml RNAse. The cells were incubated for 30 minutes at room temperature before being stored at 4° C. Cell cycle was measured using a FACS Calibur using Cell Quest Pro and Modfit software.
Apoptosis Studies using U251 cells with Δ^9-THC and/or CBD. […] Therefore, U251 cells were treated with THC and CBD alone or with the combination of the two, and cell cycle was analyzed using cell flow cytometery (FIG. 20). […] Additionally, there was an increase in the population of cells in the G2/M phase. These changes in G1, S and G2/M phase are hallmarks of cell cycle arrest.
as §2

Turning to `CCCCC(C)(C)c1cc(O)c(C2CCC(C3CCCCC3)CC2)c(O)c1` (stereo not drawn) [Compound O-1663], the “overt toxicity (weight, appearance, general activity)” value in series [1] was “No overt toxicity”. Also, the “reduction of percent metastasis compared with CBD” value in [2] (0.5 and 1 mg/kg) is reported as “significantly more potent than CBD in reducing percent metastasis”. In addition, the “medium increase in survival” value in series [2] stood at 30 days. Also, the “mice without visible lung metastatic foci” value in series [2] (dissection microscope) turned out to be 20%. Further, the “mice still alive at end of study” value in series [2] (treatment from day seven, 2 months) came to 50%.

As to `C=C(C)[C@@H]1CCC(C)=C[C@H]1c1c(O)cc(CCCCC)cc1O` [CBD, cannabidiol], in series [3], the “ACCM tumor cell viability and invasiveness” value is “significant effect on ACCM tumor cell viability and invasiveness”; the “Id-1 gene expression in SAS, HSC-2, ACCM, ACC2” value was “downregulated in all cell lines”; the “SAS tumor cell viability and invasiveness” value is “significant effect on SAS tumor cell viability and invasiveness”. In addition, the “number of lung metastatic foci” value in series [4] is recorded as “significantly reduced upon CBD treatment”. Also, in [5], the IC50 (usually the concentration at which inhibition is half-maximal) was determined as 730 nM. For the same compound, the “invasiveness of U251 cells” value in [6] is recorded as “significantly reduce the invasiveness of U251 cells”. In addition, the “block of apoptosis by CB2 antagonist SR144528” value in series [7] (0.5 μM SR144528, combination 1.7/0.4 μM, 2.5 μM THC, 2.0 μM CBD) is listed as “no reversal was observed with SR144528”. Further, the “block of apoptosis by α-tocopherol” value in series [7] (20 μM α-tocopherol, combination 1.7/0.4 μM, 2.5 μM THC, 2.0 μM CBD) is on record as “completely blocked by α-tocopherol”. In addition, the “apoptosis (annexin)” value in series [7] (THC 1.7 μM, CBD 0.4 μM, three days) was “did not produce significant changes in apoptosis”. Moreover, in series [8] (15 mg/kg), the “mice in which no tumor cells were observed” value is on record as “one of the five mice”. In addition, the “decrease of tumor area” value in series [8] (15 mg/kg i.p. 5 days a week for 28 days) came out at 95%. The “decrease in number of Ki67-positive nuclei” value in series [8] (15 mg/kg, tumors responding to treatment) is given as 87%±9. In addition, the “Id-1 expression in tumors” value in series [8] (tumors responding to treatment) was “significant down-regulation of Id-1 expression”. Also, in [9], the cell cycle phases result is “increases in the population of cells in G1 and G2/M phase and decreases in cells in S phase”. Besides, the “reduction in the number of metastases” value in series [2] (1 mg/kg and 10 mg/kg i.p. for seven days, from one week after injection) is on record as at least 70%. In series [2] (1 mg/kg starting on day seven), the “median increase in survival” value is “only a day”. Moreover, the “growth of established lung metastatic foci” value in series [2] (0.5, 1 or 10 mg/kg i.p. for seven days) is “dose-dependently reduced the growth of established lung metastatic foci”. The “medium increase in survival” value in [2] came to 4 days. In series [2] (treatment from one week after injection), this compound returned an average median survival of 38 days.
